According to EP4725948A1, “PYRROLO[2,3-D]PYRIMIDIN-4-AMINE DERIVATIVE AND USE THEREOF IN MEDICINE” (Haisco Pharmaceutical Group Co., Ltd., priority 2023, dated 2024):
pEC50: −log10 of the molar value. Like-named read-outs stand apart in the source and are kept apart here.

How the values were obtained:
[1] = target: T1, soluble guanylate cyclase (sGC) (Homo sapiens, UniProt Q02108+Q02153); assay: In vitro detection experiment for soluble guanylate cyclase (sGC) activity (TR-FRET);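 note: enzyme reaction started with GTP and run for 60 min at 37°C, followed by a 60 min detection step at room temperature, with EC50 obtained by nonlinear curve fitting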
T1 sequence (Q02108 1-690): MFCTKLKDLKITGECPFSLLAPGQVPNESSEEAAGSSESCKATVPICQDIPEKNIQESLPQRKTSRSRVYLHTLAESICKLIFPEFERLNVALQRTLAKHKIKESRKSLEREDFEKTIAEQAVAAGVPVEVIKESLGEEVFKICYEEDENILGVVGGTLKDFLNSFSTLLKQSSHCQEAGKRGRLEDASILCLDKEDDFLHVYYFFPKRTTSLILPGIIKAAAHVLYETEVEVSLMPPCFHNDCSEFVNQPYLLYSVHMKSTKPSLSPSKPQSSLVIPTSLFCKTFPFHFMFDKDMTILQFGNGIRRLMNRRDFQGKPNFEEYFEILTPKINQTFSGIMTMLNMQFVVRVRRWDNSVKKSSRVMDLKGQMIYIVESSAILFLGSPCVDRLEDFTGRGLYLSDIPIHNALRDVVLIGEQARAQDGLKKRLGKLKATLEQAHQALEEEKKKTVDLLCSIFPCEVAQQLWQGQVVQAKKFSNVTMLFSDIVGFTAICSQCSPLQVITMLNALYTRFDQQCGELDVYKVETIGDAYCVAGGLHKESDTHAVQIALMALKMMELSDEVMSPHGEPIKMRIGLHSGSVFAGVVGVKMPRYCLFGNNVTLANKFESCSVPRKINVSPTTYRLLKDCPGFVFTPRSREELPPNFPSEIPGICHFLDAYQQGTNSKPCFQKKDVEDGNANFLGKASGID
T1 sequence (Q02153 1-619): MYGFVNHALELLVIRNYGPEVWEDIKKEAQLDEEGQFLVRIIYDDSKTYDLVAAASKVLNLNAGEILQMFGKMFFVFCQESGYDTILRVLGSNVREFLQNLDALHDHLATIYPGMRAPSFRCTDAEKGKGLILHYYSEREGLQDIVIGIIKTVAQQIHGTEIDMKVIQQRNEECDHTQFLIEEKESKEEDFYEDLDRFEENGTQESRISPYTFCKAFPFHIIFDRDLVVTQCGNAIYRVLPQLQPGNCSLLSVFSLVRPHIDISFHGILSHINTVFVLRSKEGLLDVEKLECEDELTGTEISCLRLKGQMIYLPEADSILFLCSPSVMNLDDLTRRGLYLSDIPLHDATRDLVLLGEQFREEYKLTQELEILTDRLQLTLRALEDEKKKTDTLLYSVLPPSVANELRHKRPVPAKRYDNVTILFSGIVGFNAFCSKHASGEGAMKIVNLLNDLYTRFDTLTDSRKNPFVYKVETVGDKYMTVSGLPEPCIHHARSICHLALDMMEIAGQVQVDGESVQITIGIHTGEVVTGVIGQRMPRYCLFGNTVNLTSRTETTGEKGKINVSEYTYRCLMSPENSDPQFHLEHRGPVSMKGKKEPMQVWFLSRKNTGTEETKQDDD
Protocol: First, 100 nL of the compounds at different concentrations were transferred to a 384-well reaction plate (Greiner, Cat. No. 784075) using Echo 655 (LABCYTE, Cat # 655), with the final DMSO concentration of 1% in the reaction mixture; 2 µL of sGC (ICE, Cat. No. S2304F-H07SH2) was added to a 384-well reaction plate, and the mixture was centrifuged at 1000 rpm for 1 min; and then 1 µL of DETA NONOate was added, and the mixture was incubated at 37°C for10 min. After the incubation was completed, 2 µL of GTP was added, and the mixture was centrifuged at 1000 rpm for 1 min and reacted at 37°C for 60 min. In the reaction system, the final concentrations of sGC, GTP, and DETA NONOate were 1.5 nM, 5 µM, and 100 µM, respectively. After the reaction was completed, 5 µL of the test mixture (PerkinElmer, Cat. No. 62GM2PEG) was added and incubated at room temperature for 60 min. The TR-FRET signal (Ratio: 665/620 nm) was read using a microplate reader (BMG, Cat. No. PHERAstar FSX). A nonlinear regression curve was fitted using GraphPad Prism software, and EC50 values were calculated. Compound A (Example 1 in WO 2010065275) was used as a positive reference compound.

[2] = Pharmacokinetic test in rats (inhalation administration); details: SD rats, single inhalation dose 0.03 mg/kg; for Lung AUC0-t / Lung Cmax: lung tissue
Protocol: Experimental objective: In this experiment, the test compound was administered as a single dose via inhalation to SD rats, and the concentrations of the test compound in rat plasma and lungs were determined to evaluate the pharmacokinetic characteristics and bioavailability of the test compound in the rats.
Experimental animals: Male SD rats, 180-200 g, purchased from Chengdu Dossy Experimental Animals Co., Ltd.
Experimental method: On the day of the experiment, SD rats were randomly assigned into 6 groups according to body weight (for each compound), with 2 rats in each group. The rats were fasted with water available for 12 to 16 hours one day before the administration, and were fed 4 hours after the administration.
Plasma sampling: before and after the administration, blood was taken from the orbits of the rats under isoflurane anaesthesia, and placed in an EDTAK2 centrifuge tube. Centrifugation was performed at 6000 rpm at 4°C for 10 min, and the plasma was collected.
Lung tissue sampling: Animals from each group were euthanised by CO2 inhalation at 0.25, 0.5, 1, 4, 7 and 24 hours after the administration. Then, the animal was dissected to collect lung tissue, which was rinsed with physiological saline, dried with filter paper, weighed in the balance, kept on wet ice and homogenised within 2 hours using a 6-fold volume (i.e., 6 mL per 1 g of tissue) of homogenisation buffer (50% methanol-water).
Before analysis and detection, all samples were stored at -60°C. The samples were analysed quantitatively by LC-MS/MS.

[3] = enzymatic agonism and/or activation of sGC, 1.5 nM sGC, 5 µM GTP, 100 µM DETA NONOate

SMILES: CC(C)(Cc1csc(C2(C)C(=O)Nc3nc(-c4nc(CCC(F)(F)C(F)(F)F)n5ncccc45)nc(N)c32)n1)C(=O)O (racemic) [Compound 3]
- pEC50 [1]: > 7.70

SMILES: CC(C)(Cc1cccc(C2(C)C(=O)Nc3nc(-n4c(=O)n(CCC(F)(F)C(F)(F)F)c5ncccc54)nc(N)c32)c1)C(=O)O (racemic) [Compound 9]
- pEC50 [1]: > 7.70

SMILES: CC(C)(Cc1csc(C2(C)C(=O)Nc3nc(-n4c(=O)n(CCC(F)(F)C(F)(F)F)c5ncc(F)cc54)nc(N)c32)n1)C(=O)O (racemic) [Compound 12]
- pEC50 [1]: > 7.70

SMILES: CC(C)(Cc1csc(C2(C)C(=O)Nc3nc(-n4nc(CCC(F)(F)C(F)(F)F)c5cc(F)ccc54)nc(N)c32)n1)C(=O)O (racemic) [Compound 17]
- pEC50 [1]: > 7.70

SMILES: CC(C)(Cc1csc(C2(C)C(=O)Nc3nc(-c4nc(Cc5ccccc5F)n5ncccc45)nc(N)c32)n1)C(=O)O (racemic) [Compound 19]
- pEC50 [1]: > 7.70

SMILES: CC(C)(Cc1csc(C2(C)C(=O)Nc3nc(-n4nc(Cc5ccccc5F)c5ncc(F)cc54)nc(N)c32)n1)C(=O)O (racemic) [Compound 35]
- pEC50 [1]: > 7.70

SMILES: CC(C)(Cc1csc(C2(C)C(=O)Nc3nc(-n4nc(Cc5cccc(F)c5F)c5ncc(F)cc54)nc(N)c32)n1)C(=O)O (racemic) [Compound 36]
- pEC50 [1]: > 7.70

SMILES: CC(C)(Cc1csc(C2(C)C(=O)Nc3nc(-n4nc(CCC(F)(F)C(F)(F)F)c5ncc(F)cc54)nc(N)c32)n1)C(=O)O (racemic) [Compound 37]
- pEC50 [1]: > 7.70

SMILES: CC(C)(Cc1csc(C2(C)C(=O)Nc3nc(-n4nc(Cc5ccccc5F)c5c(F)cccc54)nc(N)c32)n1)C(=O)O (racemic) [Compound 41]
- pEC50 [1]: > 7.70

SMILES: CC(C)(Cc1csc(C2(C)C(=O)Nc3nc(-c4nc(CCC(F)(F)C(F)(F)F)n5cc(F)ccc45)nc(N)c32)n1)C(=O)O (racemic) [Compound 45]
- pEC50 [1]: > 7.70

SMILES: CC(C)(Cc1csc(C2(C)C(=O)Nc3nc(-n4nc(CCC(F)(F)C(F)(F)F)c5cc(Cl)ccc54)nc(N)c32)n1)C(=O)O (racemic) [Trifluoroacetate of compound 4]
- pEC50 [1]: > 7.70

SMILES: CC(C)(Cc1csc(C2(C)C(=O)Nc3nc(-n4c(=O)n(CCC(F)(F)C(F)(F)F)c5c(F)cccc54)nc(N)c32)n1)C(=O)O (racemic) [Trifluoroacetate of compound 14]
- pEC50 [1]: > 7.70

SMILES: CC(C)(Cc1csc(C2(C)C(=O)Nc3nc(-n4c(=O)n(Cc5ccccc5F)c5cc(F)ccc54)nc(N)c32)n1)C(=O)O (racemic) [Trifluoroacetate of compound 38]
- pEC50 [1]: > 7.70

SMILES: CC(C)(Cc1cccc(C2(C)C(=O)Nc3nc(-n4c(=O)n(CCC(F)(F)C(F)(F)F)c5cc(Cl)ccc54)nc(N)c32)c1)C(=O)O (single isomer, unassigned) [Compound 1-2]
- pEC50 [1]: > 7.70

SMILES: CC(C)(Cc1csc(C2(C)C(=O)Nc3nc(-n4nc(Cc5cccc(F)c5F)c5ncc(F)cc54)nc(N)c32)n1)C(=O)O (single isomer, unassigned) [Compound 36-1]
- Lung AUC0-t/plasma AUC0-t [2]: 49.1
- Lung AUC0-t [2]: 10133 ng·h/mL
- Lung Cmax [2]: 4067 ng/mL

SMILES: CC(C)(Cc1csc(C2(C)C(=O)Nc3nc(-n4nc(CCC(F)(F)C(F)(F)F)c5ncc(F)cc54)nc(N)c32)n1)C(=O)O (single isomer, unassigned) [Compound 37-1]
- Lung AUC0-t [2]: 3281 ng·h/mL
- Lung Cmax [2]: 1729 ng/mL

SMILES: CC(C)(Cc1csc([C@]2(C)C(=O)Nc3nc(-c4nc(CCC(F)(F)C(F)(F)F)n5ncccc45)nc(N)c32)n1)C(=O)O [Compound 3-1]
- Lung AUC0-t/plasma AUC0-t [2]: 65
- Lung AUC0-t [2]: 3626 ng·h/mL
- Lung Cmax [2]: 2979 ng/mL

SMILES: CC(C)(Cc1cccc([C@@]2(C)C(=O)Nc3nc(-c4nn(CCC(F)(F)C(F)(F)F)c5cc(Cl)cnc45)nc(N)c32)c1)C(=O)O [Compound 6-1]
- Lung AUC0-t/plasma AUC0-t [2]: 659
- Lung AUC0-t [2]: 5173 ng·h/mL
- Lung Cmax [2]: 2825 ng/mL

SMILES: CC(C)(Cc1coc(C2(C)C(=O)Nc3nc(-n4c(=O)n(CCC(F)(F)C(F)(F)F)c5cc(Cl)ccc54)nc(N)c32)n1)C(=O)O (centres unmarked) [Compound 8]
- pEC50 [1, 3]: > 7.70

SMILES: CC(C)(Cc1coc(C2(C)C(=O)Nc3nc(-n4c(=O)n(CCC(F)(F)C(F)(F)F)c5cc(F)ccc54)nc(N)c32)n1)C(=O)O (centres unmarked) [Compound 11]
- pEC50 [1]: > 7.70

SMILES: CC(C)(Cc1csc(C2(C)C(=O)Nc3nc(-n4c(=O)n(CC5CCCCC5)c5ncc(F)cc54)nc(N)c32)n1)C(=O)O (centres unmarked) [Compound 13]
- pEC50 [1]: > 7.70

SMILES: CC(C)(Cc1coc(C2(C)C(=O)Nc3nc(-n4c(=O)n(CCC(F)(F)C(F)(F)F)c5c(F)cccc54)nc(N)c32)n1)C(=O)O (centres unmarked) [Compound 16]
- pEC50 [1]: > 7.70

SMILES: CC(C)(Cc1cccc(C2(C)C(=O)Nc3nc(-c4nc(CCC(F)(F)C(F)(F)F)n5ncccc45)nc(N)c32)c1)C(=O)O (centres unmarked) [Compound 18]
- pEC50 [1]: > 7.70

SMILES: CC(C)(Cc1csc([C@]2(C)C(=O)Nc3nc(-c4nc(Cc5ccccc5F)n5ncccc45)nc(N)c32)n1)C(=O)O [Compound 19-1]
- Lung AUC0-t/plasma AUC0-t [2]: 245
- Lung AUC0-t [2]: 12248 ng·h/mL
- Lung Cmax [2]: 2842 ng/mL

SMILES: CC(C)(Cc1csc(C2(C)C(=O)Nc3nc(-c4nn(CCC(F)(F)C(F)(F)F)c5cc(Cl)cnc45)nc(N)c32)n1)C(=O)O (centres unmarked) [Compound 20]
- pEC50 [1]: > 7.70

SMILES: CC(C)(Cc1coc(C2(C)C(=O)Nc3nc(-c4nn(CCC(F)(F)C(F)(F)F)c5cc(Cl)cnc45)nc(N)c32)n1)C(=O)O (centres unmarked) [Compound 21]
- pEC50 [1]: > 7.70

SMILES: CC(C)(Cc1csc(C2(C)C(=O)Nc3nc(-c4nn(Cc5cccc(F)c5F)c5cccnc45)nc(N)c32)n1)C(=O)O (centres unmarked) [Compound 24]
- pEC50 [1]: > 7.70

SMILES: CC(C)(Cc1csc(C2(C)C(=O)Nc3nc(-n4nc(CCC(F)(F)C(F)(F)F)c5ncccc54)nc(N)c32)n1)C(=O)O (centres unmarked) [Compound 29]
- pEC50 [1]: > 7.70

SMILES: CC(C)(Cc1csc(C2(C)C(=O)Nc3nc(-n4c(=O)n(CCC(F)(F)C(F)(F)F)c5cc(F)ccc54)nc(N)c32)n1)C(=O)O (centres unmarked) [Compound 31]
- pEC50 [1, 3]: > 7.70

SMILES: CC(C)(Cc1coc(C2(C)C(=O)Nc3nc(-n4nc(Cc5ccccc5F)c5c(F)cccc54)nc(N)c32)n1)C(=O)O (centres unmarked) [Compound 40]
- pEC50 [1]: > 7.70

SMILES: CC(C)(Cc1coc(C2(C)C(=O)Nc3nc(-n4nc(Cc5cccc(F)c5F)c5c(F)cccc54)nc(N)c32)n1)C(=O)O (centres unmarked) [Compound 42]
- pEC50 [1]: > 7.70

SMILES: CC(C)(Cc1csc(C2(C)C(=O)Nc3nc(-n4nc(CC5CCCCC5)c5ncc(F)cc54)nc(N)c32)n1)C(=O)O (centres unmarked) [Compound 44]
- pEC50 [1]: > 7.70

SMILES: CC(C)(Cc1coc(C2(C)C(=O)Nc3nc(-c4nc(CCC(F)(F)C(F)(F)F)n5cc(F)ccc45)nc(N)c32)n1)C(=O)O (centres unmarked) [Compound 46]
- pEC50 [1]: > 7.70

SMILES: CC(C)(Cc1cccc(C2(C)C(=O)Nc3nc(-n4nc(CCC(F)(F)C(F)(F)F)c5ncccc54)nc(N)c32)c1)C(=O)O (centres unmarked) [Trifluoroacetate of compound 5]
- pEC50 [1]: > 7.70

SMILES: CC(C)(Cc1csc(C2(C)C(=O)Nc3nc(-n4c(=O)n(CCC(F)(F)C(F)(F)F)c5ncccc54)nc(N)c32)n1)C(=O)O (centres unmarked) [Trifluoroacetate of compound 10]
- pEC50 [1]: > 7.70

SMILES: CC(C)(Cc1csc(C2(C)C(=O)Nc3nc(-n4c(=O)n(Cc5ccccc5F)c5c(F)cccc54)nc(N)c32)n1)C(=O)O (centres unmarked) [Trifluoroacetate of compound 15]
- pEC50 [1, 3]: > 7.70

SMILES: CC(C)(Cc1csc(C2(C)C(=O)Nc3nc(-c4nn(Cc5ccccc5F)c5cccnc45)nc(N)c32)n1)C(=O)O (centres unmarked) [Trifluoroacetate of compound 23]
- pEC50 [1]: > 7.70

SMILES: CC(C)(Cc1csc(C2(C)C(=O)Nc3nc(-n4c(=O)n(Cc5cccc(F)c5F)c5ncc(F)cc54)nc(N)c32)n1)C(=O)O (centres unmarked) [Trifluoroacetate of compound 28]
- pEC50 [1]: > 7.70

SMILES: CC(C)(Cc1csc(C2(C)C(=O)Nc3nc(-n4nc(Cc5ccccc5F)c5cc(Cl)ccc54)nc(N)c32)n1)C(=O)O (centres unmarked) [Trifluoroacetate of compound 32]
- pEC50 [1, 3]: > 7.70

SMILES: CC(C)(Cc1coc(C2(C)C(=O)Nc3nc(-n4nc(CCC(F)(F)C(F)(F)F)c5cc(F)ccc54)nc(N)c32)n1)C(=O)O (centres unmarked) [Trifluoroacetate of compound 33]
- pEC50 [1, 3]: > 7.70

SMILES: CC(C)(Cc1coc(C2(C)C(=O)Nc3nc(-n4nc(Cc5ccccc5F)c5cc(Cl)ccc54)nc(N)c32)n1)C(=O)O (centres unmarked) [Trifluoroacetate of compound 34]
- pEC50 [1]: > 7.70
